Source: US12486267B2, “Imidazo[1,2-A]pyridine and [1,2,4]triazolo[1,5-A]pyridine derivatives as TLR9 inhibitors for the treatment of fibrosis” (BRISTOL-MYERS SQUIBB COMPANY, priority 2020, dated 2025)

Columns and labels:
Format in all cases: cell-based
[1] = biological target: T1, human TLR8 (Homo sapiens, UniProt Q9NR97); test: TLR8 inhibition reporter assay (HEK-Blue cells, SEAP reporter); conditions: HEK-Blue cells overexpressing human TLR8; stimulated with R848 15.9 μM; 22 hour incubation; SEAP readout
T1 sequence (Q9NR97 27-1041): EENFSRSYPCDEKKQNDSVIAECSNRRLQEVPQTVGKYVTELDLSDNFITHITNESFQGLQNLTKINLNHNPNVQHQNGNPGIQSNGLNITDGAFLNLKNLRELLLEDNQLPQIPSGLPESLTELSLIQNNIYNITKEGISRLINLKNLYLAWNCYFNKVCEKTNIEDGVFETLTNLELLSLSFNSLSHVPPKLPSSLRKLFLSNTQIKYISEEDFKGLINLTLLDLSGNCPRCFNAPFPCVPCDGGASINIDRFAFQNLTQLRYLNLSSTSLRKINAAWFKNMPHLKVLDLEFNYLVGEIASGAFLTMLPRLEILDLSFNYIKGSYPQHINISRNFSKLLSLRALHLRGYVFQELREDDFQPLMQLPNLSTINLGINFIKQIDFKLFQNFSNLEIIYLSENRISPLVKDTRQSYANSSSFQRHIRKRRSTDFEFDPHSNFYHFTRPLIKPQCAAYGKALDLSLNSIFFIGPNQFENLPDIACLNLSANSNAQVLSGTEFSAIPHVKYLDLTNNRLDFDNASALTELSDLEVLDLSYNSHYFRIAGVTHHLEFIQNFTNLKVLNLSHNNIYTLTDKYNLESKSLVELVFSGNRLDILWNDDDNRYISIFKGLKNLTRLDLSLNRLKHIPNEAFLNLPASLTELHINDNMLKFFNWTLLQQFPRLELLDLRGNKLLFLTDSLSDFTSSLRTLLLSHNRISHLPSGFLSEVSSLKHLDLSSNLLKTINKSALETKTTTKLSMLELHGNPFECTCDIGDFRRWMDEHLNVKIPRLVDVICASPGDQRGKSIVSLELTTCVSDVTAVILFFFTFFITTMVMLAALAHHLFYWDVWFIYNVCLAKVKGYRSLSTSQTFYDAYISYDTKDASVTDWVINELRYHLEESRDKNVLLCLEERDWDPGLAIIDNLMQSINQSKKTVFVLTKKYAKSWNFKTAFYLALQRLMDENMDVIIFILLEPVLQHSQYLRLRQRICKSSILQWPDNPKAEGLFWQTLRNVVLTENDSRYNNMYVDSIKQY
How it was run: (§1)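 HEK-Blue cells with an NF-κB/AP-1-driven SEAP reporter were pre-treated 30 min at room temperature with compound (0.05 nM–50 μM), then stimulated with gardiquimod 7.5 μM (TLR7), R848 15.9 μM (TLR8) or ODN2006 5 nM (TLR9). After 22 h at 37 °C, SEAP was read; % inhibition was referenced to agonist+DMSO and known-inhibitor wells.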

[2] = biological target: T2, human TLR7 (Homo sapiens, UniProt Q9NYK1); test: TLR7 inhibition reporter assay (HEK-Blue cells, SEAP reporter); conditions: HEK-Blue cells overexpressing human TLR7; stimulated with gardiquimod 7.5 μM; 22 hour incubation; SEAP readout
T2 sequence (Q9NYK1 27-1049): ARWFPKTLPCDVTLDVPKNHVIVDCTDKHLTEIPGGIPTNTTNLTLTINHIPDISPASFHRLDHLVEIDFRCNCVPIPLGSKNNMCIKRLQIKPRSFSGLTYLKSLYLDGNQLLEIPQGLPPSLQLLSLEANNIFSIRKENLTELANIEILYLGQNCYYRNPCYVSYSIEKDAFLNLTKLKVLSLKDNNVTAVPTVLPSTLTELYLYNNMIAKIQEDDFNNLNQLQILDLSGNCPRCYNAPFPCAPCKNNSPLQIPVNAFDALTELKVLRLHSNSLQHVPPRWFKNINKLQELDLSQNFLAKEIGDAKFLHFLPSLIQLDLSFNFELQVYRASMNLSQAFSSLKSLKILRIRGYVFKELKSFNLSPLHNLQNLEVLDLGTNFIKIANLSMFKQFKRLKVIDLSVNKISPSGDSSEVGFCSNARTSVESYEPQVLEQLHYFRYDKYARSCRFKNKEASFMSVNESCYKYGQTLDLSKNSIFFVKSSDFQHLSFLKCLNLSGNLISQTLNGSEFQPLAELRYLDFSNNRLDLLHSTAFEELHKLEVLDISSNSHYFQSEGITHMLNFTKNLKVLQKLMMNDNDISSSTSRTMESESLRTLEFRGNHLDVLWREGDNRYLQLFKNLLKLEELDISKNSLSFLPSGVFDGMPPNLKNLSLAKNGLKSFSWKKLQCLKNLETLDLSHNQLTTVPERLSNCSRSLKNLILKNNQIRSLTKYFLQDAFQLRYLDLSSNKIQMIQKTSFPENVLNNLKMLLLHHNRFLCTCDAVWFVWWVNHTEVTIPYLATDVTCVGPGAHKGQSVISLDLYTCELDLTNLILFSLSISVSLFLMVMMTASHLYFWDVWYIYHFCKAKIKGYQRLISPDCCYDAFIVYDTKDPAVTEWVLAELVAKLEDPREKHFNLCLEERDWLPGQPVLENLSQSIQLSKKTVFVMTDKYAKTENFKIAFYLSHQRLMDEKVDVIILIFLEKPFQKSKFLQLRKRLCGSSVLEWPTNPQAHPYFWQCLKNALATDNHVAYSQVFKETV
How it was run: as §1

[3] = biological target: T3, human TLR9 (Homo sapiens, UniProt Q9NR96); test: TLR9 inhibition reporter assay (HEK-Blue cells, SEAP reporter); conditions: HEK-Blue cells overexpressing human TLR9; stimulated with ODN2006 5 nM; 22 hour incubation; SEAP readout
T3 sequence (Q9NR96 26-1032): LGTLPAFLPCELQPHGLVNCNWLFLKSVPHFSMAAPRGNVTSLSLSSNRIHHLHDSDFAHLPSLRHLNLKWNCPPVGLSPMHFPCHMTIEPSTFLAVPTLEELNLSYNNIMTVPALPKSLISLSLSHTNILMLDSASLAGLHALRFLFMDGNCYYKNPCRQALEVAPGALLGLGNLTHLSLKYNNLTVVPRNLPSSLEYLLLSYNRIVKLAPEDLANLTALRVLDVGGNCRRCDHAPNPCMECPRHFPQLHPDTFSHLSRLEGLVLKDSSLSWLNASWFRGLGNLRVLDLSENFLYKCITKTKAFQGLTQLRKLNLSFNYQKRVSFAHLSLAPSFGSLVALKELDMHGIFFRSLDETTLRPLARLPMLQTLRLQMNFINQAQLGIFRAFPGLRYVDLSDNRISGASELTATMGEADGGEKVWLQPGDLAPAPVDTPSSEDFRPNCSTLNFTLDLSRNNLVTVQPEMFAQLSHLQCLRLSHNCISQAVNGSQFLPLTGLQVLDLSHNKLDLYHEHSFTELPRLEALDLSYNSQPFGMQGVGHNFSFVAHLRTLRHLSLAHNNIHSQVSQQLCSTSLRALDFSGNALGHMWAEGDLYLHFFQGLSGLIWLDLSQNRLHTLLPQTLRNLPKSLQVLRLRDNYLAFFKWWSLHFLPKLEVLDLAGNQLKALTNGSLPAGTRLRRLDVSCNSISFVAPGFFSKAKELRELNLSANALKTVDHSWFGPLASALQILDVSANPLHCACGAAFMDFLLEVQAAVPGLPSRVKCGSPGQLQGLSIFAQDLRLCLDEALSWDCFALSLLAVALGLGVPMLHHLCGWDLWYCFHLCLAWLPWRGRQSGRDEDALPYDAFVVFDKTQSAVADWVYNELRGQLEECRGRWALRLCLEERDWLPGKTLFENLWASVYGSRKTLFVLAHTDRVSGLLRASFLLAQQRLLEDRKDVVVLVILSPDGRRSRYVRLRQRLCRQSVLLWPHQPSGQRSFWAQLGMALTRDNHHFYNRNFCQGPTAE
How it was run: as §1

IC50 [1] [µM]	IC50 [2] [µM]	IC50 [3] [µM]	SMILES
> 50	0.6	0.031	CC(C)CN1C2CCC1CC(N1CCC(c3cc(F)c4nc(-c5ccc(S(C)(=O)=O)cc5)cn4c3)CC1)C2 (single isomer, unassigned) [Example 113, 8-fluoro-6-(1-(8-isobutyl-8-azabicyclo[3.2.1]octan-3-yl)piperidin-4-yl)-2-(4-(methylsulfonyl)phenyl)imidazo[1,2-a]pyridine]
> 50	2.4	0.0084	CS(=O)(=O)c1ccc(-c2cn3cc(C4CCN(C5CCCN(CC6CC6)CC5)CC4)cc(F)c3n2)cc1 (single isomer, unassigned) [Example 128, 6-(1-(1-(cyclopropylmethyl)azepan-4-yl)piperidin-4-yl)-8-fluoro-2-(4-(methylsulfonyl)phenyl)imidazo[1,2-a]pyridine]
> 50	6.9	0.079	Cc1cc(C2CCN(C3CCN(C(C)C)CC3)CC2)cn2nc(-c3ccc(S(C)(=O)=O)cc3)nc12 [Example 162, 6-(1′-isopropyl-[1,4′-bipiperidin]-4-yl)-8-methyl-2-(4-(methylsulfonyl)phenyl)-[1,2,4]triazolo[1,5-a]pyridine]
17	6.3	0.71	Cc1cc(-c2ccc(N3CCN(C4CCC4)CC3)cc2)cn2cc(-c3ccc(S(C)(=O)=O)cc3)nc12 [Example 102, 6-(4-(4-cyclobutylpiperazin-1-yl)phenyl)-8-methyl-2-(4-(methylsulfonyl)phenyl) imidazo[1,2-a]pyridine]
15	2.1	0.232	COc1ccc(-c2cn3cc(-c4ccc(N5CCN(C(C)C)CC5)cc4)cc(C)c3n2)cc1OC [Example 96, 2-(3,4-dimethoxyphenyl)-6-(4-(4-isopropylpiperazin-1-yl)phenyl)-8-methylimidazo[1,2-a]pyridine]
> 50	> 50	0.624	Cc1cc(-c2ccc(N3CCN(CC(C)C)CC3)cc2)cn2cc(-c3ccc(S(C)(=O)=O)cc3)nc12 [Example 99, 6-(4-(4-isobutylpiperazin-1-yl)phenyl)-8-methyl-2-(4-(methylsulfonyl)phenyl) imidazo[1,2-a]pyridine]
27	1.3	0.0078	CS(=O)(=O)c1ccc(-c2cn3cc(C4CCN(C5CC6CCC(C5)N6C5CCOCC5)CC4)cc(F)c3n2)cc1 (single isomer, unassigned) [Example 122, 8-fluoro-2-(4-(methylsulfonyl)phenyl)-6-(1-(8-(tetrahydro-2H-pyran-4-yl)-8-azabicyclo[3.2.1]octan-3-yl)piperidin-4-yl) imidazo[1,2-a]pyridine]
> 50	8.2	0.11	CC(C)N1C2CCC1CC(N1CCC(c3cc(F)c4nc(-c5ccc(S(C)(=O)=O)cc5)cn4c3)CC1)C2 (single isomer, unassigned) [Example 68, 8-fluoro-6-(1-(8-isopropyl-8-azabicyclo[3.2.1]octan-3-yl)piperidin-4-yl)-2-(4-(methylsulfonyl)phenyl)imidazo[1,2-a]pyridine]
15	13	0.06	COc1ccc(-c2cn3c(n2)CC(C2CCN(C4CCN(C(C)C)CC4)CC2)CC3)cc1OC (racemic) [Example 58, 2-(3,4-dimethoxyphenyl)-7-(1′-isopropyl-[1,4′-bipiperidin]-4-yl)-5,6,7,8-tetrahydroimidazo[1,2-a]pyridine]
> 50	14	0.056	COc1ccc(-c2cn3cc(C4CCN(C5CCN(C6CC6)CC5)CC4)cc(C)c3n2)cc1OC [Example 1, 6-(1′-cyclopropyl-[1,4′-bipiperidin]-4-yl)-2-(3,4-dimethoxyphenyl)-8-methylimidazo [1,2-a]pyridine]
> 25	3.9	0.042	COc1ccc(-c2cn3c(n2)CC[C@H](C2CCN(C4CC5CCC(C4)N5C(C)C)CC2)C3)cc1OC (single isomer, unassigned) [Example 135]
> 50	16.7	0.709	CS(=O)(=O)c1ccc(-c2cn3cc(C4CCN(C5CC6CCC(C5)N6C5COC5)CC4)cc(F)c3n2)cc1 (single isomer, unassigned) [Example 120, 8-fluoro-2-(4-(methylsulfonyl)phenyl)-6-(1-(8-(oxetan-3-yl)-8-azabicyclo[3.2.1]octan-3-yl)piperidin-4-yl)imidazo[1,2-a]pyridine]
> 50	10.7	0.033	CS(=O)(=O)c1ccc(-c2cn3c(n2)CC[C@H](C2CCN(C4CC5CCC(C4)N5CC4CC4)CC2)C3)cc1 (single isomer, unassigned) [Example 139]
> 50	13	0.235	CS(=O)(=O)c1ccc(-c2cn3cc(C4CCN(C5CCN(C6COC6)CC5)CC4)cc(F)c3n2)cc1 [Example 111, 8-fluoro-2-(4-(methylsulfonyl)phenyl)-6-(1′-(oxetan-3-yl)-[1,4′-bipiperidin]-4-yl)imidazo[1,2-a]pyridine]
